# Laboratory results from patent US9938258B2 (Karyopharm Therapeutics Inc., priority 2012, dated 2018).
# Read-outs that look alike come from different tables or passages of the source.
# Tests used:
# MS751 cells = assay: MTT cell proliferation assay, MS751; type: cell-based, human; conditions: Homo sapiens
# Method in brief: (§1)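 Seeding 5,000-10,000 cells/well, overnight attachment; 8 concs, 1 nM–30 μM. MTT ~4 h, formazan solubilized, OD 490 nm. % inhibition vs negative control, mostly duplicate, mean±SE.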
# Z138 cells = assay: MTT cell proliferation assay, Z138; type: cell-based; conditions: Homo sapiens
# Method in brief: as §1
# 3T3 cells = assay: MTT cell proliferation assay, 3T3; type: cell-based, mouse; conditions: Mus musculus
# Method in brief: as §1
# [1] = MS751, MS751 cells, approximately 64-72 hours incubation, read-out: MTT Assay IC50, MS751
# [2] = Z-138, Z138 cells, approximately 64-72 hours incubation, read-out: MTT Assay IC50, Z138
# [3] = NIH3T3, 3T3 cells, approximately 64-72 hours incubation, read-out: MTT Assay IC50, 3T3
# [4] = MS751, read-out: MTT Assay IC50, MS751
# [5] = Z-138, read-out: MTT Assay IC50, Z138
# [6] = NIH3T3, read-out: MTT Assay IC50, 3T3
SMILES,IC50 (MS751 cells; [1]) [µM],IC50 (Z138 cells; [2]) [µM],IC50 (3T3 cells; [3]) [µM],IC50 (MS751 cells; [4]) [µM],IC50 (Z138 cells; [5]) [µM],IC50 (3T3 cells; [6]) [µM]
"Nc1ccc(/C=C/C(=O)NCC2Cc3c(-c4ccc(C(=O)N5CC(F)(F)C5)cc4)ccc(Cl)c3O2)cn1 (stereo not drawn) [Compound 340, (E)-3-(6-aminopyridin-3-yl)-N-((7-chloro-4-(4-(3,3-difluoroazetidine-1-carbonyl)phenyl)-2,3-dihydrobenzofuran-2-yl)methyl)acrylamide]",< 0.1,0.1 to 5,< 0.1,,,
"Nc1ccc(/C=C/C(=O)NCC2Cc3c(-c4ccccc4C(=O)N4CC(F)(F)C4)ccc(Cl)c3O2)cn1 (stereo not drawn) [Compound 341, (E)-3-(6-aminopyridin-3-yl)-N-((7-chloro-4-(2-(3,3-difluoroazetidine-1-carbonyl)phenyl)-2,3-dihydrobenzofuran-2-yl)methyl)acrylamide]",< 0.1,0.1 to 5,< 0.1,,,
"Nc1ccc(/C=C/C(=O)NCC2Cc3cc(-c4ccc(C(=O)N5CCNCC5)nc4)cc(Cl)c3O2)cn1 (stereo not drawn) [Compound 342, (E)-3-(6-aminopyridin-3-yl)-N-((7-chloro-5-(6-(piperazine-1-carbonyl)pyridin-3-yl)-2,3-dihydrobenzofuran-2-yl)methyl)acrylamide]",0.1 to 5,> 30,0.1 to 5,,,
"CN1C(=O)c2ccc(-c3cc(Cl)c4c(c3)CC(CNC(=O)/C=C/c3ccc(N)nc3)O4)cc2C1=O (stereo not drawn) [Compound 343, (E)-3-(6-aminopyridin-3-yl)-N-((7-chloro-5-(2-methyl-1,3-dioxoisoindolin-5-yl)-2,3-dihydrobenzofuran-2-yl)methyl)acrylamide]",0.1 to 5,> 30,< 0.1,,,
"Nc1ccc(/C=C/C(=O)NCC2Cc3c(-c4ccccc4C(=O)N4CCOCC4)ccc(Cl)c3O2)cn1 (stereo not drawn) [Compound 344, (E)-3-(6-aminopyridin-3-yl)-N-((7-chloro-4-(2-(morpholine-4-carbonyl)phenyl)-2,3-dihydrobenzofuran-2-yl)methyl)acrylamide]",< 0.1,0.1 to 5,< 0.1,,,
"COc1cc(-c2ccc(C(=O)N3CCOCC3)cc2)cc2c1OC(CNC(=O)/C=C/c1ccc(N)nc1)C2 (stereo not drawn) [Compound 345, (E)-3-(6-aminopyridin-3-yl)-N-((7-methoxy-5-(4-(morpholine-4-carbonyl)phenyl)-2,3-dihydrobenzofuran-2-yl)methyl)acrylamide]",,,,< 0.1,0.1 to 5,< 0.1
"Nc1ccc(/C=C/C(=O)NCC2Cc3cc(-c4ccc(C(=O)N5CCOCC5)cc4)cc(C(F)(F)F)c3O2)cn1 (stereo not drawn) [Compound 346, (E)-3-(6-aminopyridin-3-yl)-N-((5-(4-(morpholine-4-carbonyl)phenyl)-7-(trifluoromethyl)-2,3-dihydrobenzofuran-2-yl)methyl)acrylamide]",< 0.1,0.1 to 5,< 0.1,,,
"Nc1ccc(/C=C/C(=O)NCC2Cc3cc(-c4ccc(C(=O)N5CCOCC5)cc4)cc(O)c3O2)cn1 (stereo not drawn) [Compound 347, (E)-3-(6-aminopyridin-3-yl)-N-((7-hydroxy-5-(4-(morpholine-4-carbonyl)phenyl)-2,3-dihydrobenzofuran-2-yl)methyl)acrylamide]",0.1 to 5,> 30,0.1 to 5,,,
"Nc1ccc(/C=C/C(=O)NCC2Oc3c(Cl)cc(-c4ccc(C(=O)N5CCOCC5)cc4)cc3C2=O)cn1 (stereo not drawn) [Compound 348, (E)-3-(6-aminopyridin-3-yl)-N-((7-chloro-5-(4-(morpholine-4-carbonyl)phenyl)-3-oxo-2,3-dihydrobenzofuran-2-yl)methyl)acrylamide]",,,,0.1 to 5,5 to 30,0.1 to 5
"CC1(CNC(=O)/C=C/c2ccc(N)nc2)Cc2cc(-c3ccc(C(=O)N4CCOCC4)cc3)cc(Cl)c2O1 (stereo not drawn) [Compound 349, (E)-3-(6-aminopyridin-3-yl)-N-((7-chloro-2-methyl-5-(4-(morpholine-4-carbonyl)phenyl)-2,3-dihydrobenzofuran-2-yl)methyl)acrylamide]",0.1 to 5,0.1 to 5,< 0.1,,,
"Nc1ccc(CNC(=O)/C=C/C2Cc3cc(-c4ccc(S(=O)(=O)N5CCOCC5)cc4)cc(Cl)c3O2)cn1 (stereo not drawn) [Compound 350, (E)-N-((6-aminopyridin-3-yl)methyl)-3-(7-chloro-5-(4-(morpholinosulfonyl)phenyl)-2,3-dihydrobenzofuran-2-yl)acrylamide]",0.1 to 5,> 30,0.1 to 5,,,
"Nc1ccc(CNC(=O)/C=C/C2Cc3cc(-c4ccc(C(=O)N5CC(F)(F)C5)cc4)cc(Cl)c3O2)cn1 (stereo not drawn) [Compound 351, (E)-N-((6-aminopyridin-3-yl)methyl)-3-(7-chloro-5-(4-(3,3-difluoroazetidine-1-carbonyl)phenyl)-2,3-dihydrobenzofuran-2-yl)acrylamide]",0.1 to 5,0.1 to 5,0.1 to 5,,,
"Nc1ccc(CNC(=O)/C=C/C2Cc3c(-c4ccc(C(=O)N5CC(F)C5)cc4)ccc(Cl)c3O2)cn1 (stereo not drawn) [Compound 352, (E)-N-((6-aminopyridin-3-yl)methyl)-3-(7-chloro-4-(4-(3-fluoroazetidine-1-carbonyl)phenyl)-2,3-dihydrobenzofuran-2-yl)acrylamide]",0.1 to 5,> 30,5 to 30,,,
"CCOC(=O)CCOCCOCCC(=O)N1CCN(C(=O)c2ccc(-c3cc(Cl)c4c(c3)CC(CNC(=O)/C=C/c3ccc(N)nc3)O4)cc2)CC1 (stereo not drawn) [Compound 354, (E)-ethyl 3-(2-(3-(4-(4-(2-((3-(6-aminopyridin-3-yl)acrylamido)methyl)-7-chloro-2,3-dihydrobenzofuran-5-yl)benzoyl)piperazin-1-yl)-3-oxopropoxy)ethoxy)propanoate]",< 0.1,5 to 30,< 0.1,,,
"CC(C)(C)c1ccc(-c2ccc(C(=O)N3CCOCC3)cc2)c2c1OC(CNC(=O)/C=C/c1ccc(N)nc1)C2 (stereo not drawn) [Compound 355, (E)-3-(6-aminopyridin-3-yl)-N-((7-(tert-butyl)-4-(4-(morpholine-4-carbonyl)phenyl)-2,3-dihydrobenzofuran-2-yl)methyl)acrylamide]",> 30,> 30,0.1 to 5,,,
"Nc1ccc(CNC(=O)/C=C/C2Cc3cc(-c4cccc(S(=O)(=O)N5CCOCC5)c4)cc(Cl)c3O2)cn1 (stereo not drawn) [Compound 357, (E)-N-((6-aminopyridin-3-yl)methyl)-3-(7-chloro-5-(3-(morpholinosulfonyl)phenyl)-2,3-dihydrobenzofuran-2-yl) acrylamide]",< 0.1,0.1 to 5,< 0.1,,,
"Nc1ccc(CNC(=O)/C=C/C2Cc3cc(-c4ccc(C(=O)N5CC[C@@H](F)C5)cc4)cc(Cl)c3O2)cn1 (stereo partly drawn) [Compound 358, (E)-N-((6-aminopyridin-3-yl)methyl)-3-(7-chloro-5-(4-((R)-3-fluoropyrrolidine-1-carbonyl)phenyl)-2,3-dihydrobenzofuran-2-yl)acrylamide]",0.1 to 5,> 30,0.1 to 5,,,
"Nc1ccc(CNC(=O)/C=C/C2Cc3cc(-c4ccc(C(=O)N5CC[C@H](F)C5)cc4)cc(Cl)c3O2)cn1 (stereo partly drawn) [Compound 359, (E)-N-((6-Aminopyridin-3-yl)methyl)-3-(7-chloro-5-(4-((S)-3-fluoropyrrolidine-1-carbonyl)phenyl)-2,3-dihydrobenzofuran-2-yl)acrylamide]",0.1 to 5,> 30,5 to 30,,,
"Nc1ccc(CNC(=O)/C=C/C2Cc3cc(-c4ccccc4S(=O)(=O)N4CCOCC4)cc(Cl)c3O2)cn1 (stereo not drawn) [Compound 360, (E)-N-((6-aminopyridin-3-yl)methyl)-3-(7-chloro-5-(2-(morpholinosulfonyl)phenyl)-2,3-dihydrobenzofuran-2-yl)acrylamide]",< 0.1,0.1 to 5,< 0.1,,,
"Nc1ccc(CNC(=O)/C=C/C2Cc3cc(-c4ccc(C(=O)N5CC(F)C5)cc4)cc(Cl)c3O2)cn1 (stereo not drawn) [Compound 361, (E)-N-((6-Aminopyridin-3-yl)methyl)-3-(7-chloro-5-(4-(3-fluoroazetidine-1-carbonyl)phenyl)-2,3-dihydrobenzofuran-2-yl)acrylamide]",0.1 to 5,0.1 to 5,0.1 to 5,,,
"CC1(C)CN(C(=O)c2ccc(-c3cc(Cl)c4c(c3)CC(/C=C/C(=O)NCc3ccc(N)nc3)O4)cc2)C1 (stereo not drawn) [Compound 362, (E)-N-((6-aminopyridin-3-yl)methyl)-3-(7-chloro-5-(4-(3,3-dimethylazetidine-1-carbonyl)phenyl)-2,3-dihydrobenzofuran-2-yl)acrylamide]",< 0.1,> 30,< 0.1,,,
"Nc1ccc(CNC(=O)/C=C/C2Cc3cc(-c4ccc(S(=O)(=O)N5CC(F)(F)C5)cc4)cc(Cl)c3O2)cn1 (stereo not drawn) [Compound 363, (E)-N-((6-aminopyridin-3-yl)methyl)-3-(7-chloro-5-(4-(3,3-difluoroazetidin-1-ylsulfonyl)phenyl)-2,3-dihydrobenzofuran-2-yl)acrylamide]",> 30,> 30,5 to 30,,,
"Nc1ccc(CNC(=O)/C=C/C2Cc3c(-c4ccc(S(=O)(=O)N5CCOCC5)cc4)ccc(Cl)c3O2)cn1 (stereo not drawn) [Compound 364, (E)-N-((6-aminopyridin-3-yl)methyl)-3-(7-chloro-4-(4-(morpholinosulfonyl)phenyl)-2,3-dihydrobenzofuran-2-yl)acrylamide]",0.1 to 5,> 30,5 to 30,,,
"[2H]C1([2H])c2cc(-c3ccc(C(=O)N4CCOCC4)cc3)cc(Cl)c2OC1CNC(=O)/C=C/c1ccc(N)nc1 (stereo not drawn) [Compound 365, (E)-3-(6-aminopyridin-3-yl)-N-((7-chloro-3,3-dideutero-5-(4-(morpholine-4-carbonyl)phenyl)-2,3-dihydrobenzofuran-2-yl)methyl)acrylamide]",< 0.1,0.1 to 5,< 0.1,,,
